Measurements from patent US7935708B2, “Dihydropyrazolopyrimidinone derivatives” (MSD K.K., priority 2006, dated 2011).

Legend:
[1] = system: Cdc2 (Cdk1) tyrosine 15 phosphorylation in WiDr cells; test: Cdc2 (Cdk1) tyrosine 15-phosphorylation-inhibitory effect in gemcitabine-treated WiDr cells (ELISA); format: cell-based; conditions: Homo sapiens, gemcitabine 100 nM 24 hours, then test compound with nocodazole 8 hours, read-out: Cdc2-Y15 Phosphorylation-Inhibitory Effect (WiDr, + gemcitabine) (EC50)
Description: (§1) Pharmaceutical Text 2 (Method of Determining Drug Potency in Cells (Cdc2 (Cdk1) Tyrosine 15-Phosphorylation-Inhibitory Effect))
(§2) Fetal bovine serum (FBS) was obtained from Morgate; media RPMI1640 and DMEM were from Invitrogen; camptothecin was from Sigma; gemcitabine was from Nippon Eli Lilly; nocodazole and protease inhibitor cocktail were from Sigma; rabbit anti-Cdc2 antibody and mouse anti-Cdc2 antibody were from Santa Cruz Biotechnology; rabbit anti-tyrosine 15-phosphorylated Cdc2 antibody and horseradish peroxidase-labeled anti-mouse IgG antibody were from Cell Signaling Technology; sure blue reserve TMB peroxidase substrate was from Kirkegaard and Perry Laboratories.
(§3) Human non-small cell lung cancer cells (NCI-H1299) and human colon cancer cells (WiDr) were obtained from American Type Culture Collection (ATCC).
(§4) c) Method of Effect Determination:
In the method of using WiDr cells, the cells were suspended in DMEM containing 10% FBS, and the cell suspension was applied to a 96-well Nunclondelta-processed plastic plate in an amount of 2000 cells/100 μL/well, in which the cells were incubated overnight in 5% CO2-95% air at 37° C. Gemcitabine was dissolved in PBS, and diluted with DMEM containing 10% FBS, and then this was applied to the plate on which the cells had been previously sowed, in an amount of 50 μL/well in such a manner that the final concentration of gemcitabine could be 100 nM. Then, the cells were incubated for 24 hours at 37° C. in 5% CO2-95% air. The test compound was stepwise diluted with DMSO, then diluted with 1200 nM nocodazole-containing DMEM containing 10% FBS, and applied to the plate on which the gemcitabine-treated cells had been sowed, in an amount of 50 μL/well. The cells were incubated for 8 hours at 37° C. in 5% CO2-95% air, then the culture was removed, and a cytolytic buffer was added to the plate in an amount of 100 μL/well, shaken at 4° C. for 2 hours, then frozen at −80° C., and melted to give a cell solution. Cdc2 and tyrosine 15-phosphorylated Cdc2 in the cell solution were determined through ELISA, and the ratio of tyrosine 15-phosphorylated Cdc2 to Cdc2 was calculated to obtain the 50% phosphorylation-inhibitory concentration of the test compound to the cells (EC50, nM). Cdc2 was determined through ELISA as follows: A rabbit anti-Cdc2 antibody solution, which had been diluted 200-fold with 50 mM carbonate-bicarbonate buffer (pH 9.6), was applied to a 96-well maxisorp plastic plate in an amount of 50 μL/well, and statically kept overnight at 4° C. so as to fix the antibody on the plate. Next, this was washed three times with PBS, and 5% BSA/PBS was added thereto in an amount of 300 μL/well, and statically kept at room temperature for 2 hours, and then again washed three times with PBS. A mouse anti-Cdc2 antibody solution that had been diluted 100-fold with 1% BSA/TBS-T was added to it in an amount of 50 μL/well, and the cell solution was added thereto in an amount of 10 μL/well and statically kept overnight at 4° C. Next, this was washed three times with 0.1% BSA/TBS-T, and then a horseradish peroxidase-labeled anti-mouse IgG antibody solution that had been diluted 2000-fold with 1% BSA/TBS-T was added thereto in an amount of 70 μL/well, and statically kept at room temperature for 3 hours. Finally, this was washed five times with 0.1% BSA/TBS-T, then a substrate of sure blue reserve TMB peroxidase was added to it in an amount of 100 μL/well, and left for coloration in a dark place at room temperature for 15 minutes. Then, 1 M hydrochloric acid was added to it in an amount of 100 μL/well to stop the reaction, and this was analyzed through colorimetry. […]

[2] = system: Cdc2 (Cdk1) tyrosine 15 phosphorylation in NCI-H1299 cells; test: Cdc2 (Cdk1) tyrosine 15-phosphorylation-inhibitory effect in camptothecin-treated NCI-H1299 cells (ELISA); format: cell-based; conditions: Homo sapiens, camptothecin 200 nM 16 hours, then test compound with nocodazole 8 hours, read-out: Cdc2-Y15 Phosphorylation-Inhibitory Effect (H1299, + camptothecin) (EC50)
Description: as §1, §2, §3, §4
In the method of using NCI-H1299 cells, the cells were suspended in RPMI1640 containing 10% FBS, and the cell suspension was applied to a 96-well Nunclondelta-processed plastic plate (bought from Nunc), in an amount of 2000 cells/100 μL/well, in which the cells were incubated overnight in 5% CO2-95% air at 37° C. Camptothecin was dissolved in dimethylsulfoxide (DMSO), and diluted with RPMI1640 containing 10% FBS, and then this was applied to the plate on which the cells had been previously sowed, in an amount of 50 μL/well in such a manner that the final concentration of camptothecin could be 200 nM. Then, the cells were incubated for 16 hours at 37° C. in 5% CO2-95% air. The test compound was stepwise diluted with DMSO, then diluted with 4000 nM nocodazole-containing RPMI1640 containing 10% FBS, and applied to the plate on which the camptothecin-treated cells had been sowed, in an amount of 50 μL/well. The cells were incubated for 8 hours at 37° C. in 5% CO2-95% air, then the medium was removed, and a cytolytic buffer was added to the plate in an amount of 100 μL/well, shaken at 4° C. for 2 hours, then frozen at −80° C., and melted to give a cell solution. Cdc2 and tyrosine 15-phosphorylated Cdc2 in the cell solution were determined through enzyme-linked immunosorbent assay (ELISA), and the ratio of tyrosine 15-phosphorylated Cdc2 to Cdc2 was calculated to obtain the 50% phosphorylation-inhibitory concentration of the test compound to the cells (EC50, nM). The cytolytic buffer used herein is an aqueous solution containing 20 mM Hepes (pH 7.5), 150 mM sodium chloride, 1 mM disodium ethylenediaminetetraacetate, 0.1% polyoxyethylene (10) octylphenyl ether, 1% protease inhibitor cocktail, 1 mM dithiothreitol, 2 mM sodium orthovanadate, 10 mM sodium fluoride and 10 mM glycerol diphosphate. Cdc2 was determined through ELISA as follows: A rabbit anti-Cdc2 antibody solution, which had been diluted 200-fold with 50 mM carbonate-bicarbonate buffer (pH 9.6), was applied to a 96-well maxisorpimmuno plate (bought from Nunc), in an amount of 50 μL/well, and statically kept overnight at 4° C. so as to fix the antibody on the plate. Next, this was washed three times with phosphate-buffered saline (PBS), and 5% bovine serum albumin-containing PBS (5% BSA/PBS) was added thereto in an amount of 300 μL/well, and statically kept at room temperature for 2 hours, and then again washed three times with PBS. A mouse anti-Cdc2 antibody solution that had been diluted 100-fold with 0.05% polyoxyethylene sorbitan monolaurate and 1% BSA-containing Tris-HCl-buffered saline (1% BSA/TBS-T) was added to it in an amount of 50 μL/well, and the cell solution was added thereto in an amount of 5 μL/well and statically kept overnight at 4° C. Next, this was washed three times with 0.05% polyoxyethylene sorbitan monolaurate and 0.1% BSA-containing Tris-HCl-buffered saline (0.1% BSA/TBS-T), and then a horseradish peroxidase-labeled anti-mouse IgG antibody solution that had been diluted 2000-fold with 1% BSA/TBS-T was added thereto in an amount of 70 μL/well, and statically kept at room temperature for 3 hours. […]

EC50 [1] [nM]	EC50 [2] [nM]	SMILES
8		C#CCn1c(=O)c2cnc(Nc3ccc(N4CCN(C)CC4)cc3)nc2n1-c1cccc(C(C)(C)O)n1 [Example 113, 1-[6-(1-hydroxy-1-methylethyl)pyridin-2-yl]-6-{[4-(4-methylpiperazin-1-yl)phenyl]amino}-2-(2-propynyl)-1,2-dihydro-3H-pyrazolo[3,4-d]pyrimidin-3-one]
350	247	C=CCn1c(=O)c2cnc(Nc3ccc(N4CCN(C)CC4)cc3)nc2n1-c1cccc(C(C)(C)O)c1 [Example 19, 2-allyl-1-[3-(1-hydroxy-1-methylethyl)phenyl]-6-{[4-(4-methylpiperazin-1-yl)phenyl]amino}-1,2-dihydro-3H-pyrazolo[3,4-d]pyrimidin-3-one]
39	83	C=CCn1c(=O)c2cnc(Nc3ccc(N4CCN(C)CC4)c(C)c3)nc2n1-c1cccc(OCCO)n1 [Example 98, 2-allyl-1-[6-(2-hydroxyethoxy)pyridin-2-yl]-6-{[3-methyl-4-(4-methylpiperazin-1-yl)phenyl]amino}-1,2-dihydro-3H-pyrazolo[3,4-d]pyrimidin-3-one]
	93	Cc1cc(Nc2ncc3c(=O)n(Cc4ccccc4)n(-c4ccccc4)c3n2)ccc1N1CCN(C)CC1 [Example 111, 2-benzyl-6-{[3-methyl-4-(4-methylpiperazin-1-yl)phenyl]amino}-1-phenyl-1,2-dihydro-3H-pyrazolo[3,4-d]pyrimidin-3-one]
122	86	C=CCn1c(=O)c2cnc(Nc3ccc(N4CCN(C)CC4)cc3)nc2n1-c1cccc(CN(C)S(C)(=O)=O)n1 [Example 99, N-{[6-(2-allyl-6-{[4-(4-methylpiperazin-1-yl)phenyl]amino}-3-oxo-1,2-dihydro-3H-pyrazolo[3,4-d]pyrimidin-1-yl)pyridin-2-yl]methyl}-N-methylmethanesulfonamide]
	46	C=CCn1c(=O)c2cnc(Nc3ccc(N4CCN(C)CC4)c(C)c3)nc2n1-c1cccc(CN(C)C)n1 [Example 52, 2-allyl-1-{6-[(dimethylamino)methyl]pyridin-2-yl}-6-{[3-methyl-4-(4-methylpiperazin-1-yl)phenyl]amino}-1,2-dihydro-3H-pyrazolo[3,4-d]pyrimidin-3-one]
	114	C=CCn1c(=O)c2cnc(Nc3ccc(N4CCN(C)CC4)cc3)nc2n1-c1cccc(CN(C)C)c1 [Example 26, 2-allyl-1-[3-(dimethylaminomethyl)phenyl]-6-{[4-(4-methylpiperazin-1-yl)phenyl]amino}-1,2-dihydro-3H-pyrazolo[3,4-d]pyrimidin-3-one]
	188	C=CCn1c(=O)c2cnc(Nc3ccc(N4CCN(C)CC4)c(CO)c3)nc2n1-c1ccccn1 [Example 29, 2-allyl-6-{[3-hydroxymethyl-4-(4-methylpiperazin-1-yl)phenyl]amino}-1-pyridin-2-yl-1,2-dihydro-3H-pyrazolo[3,4-d]pyrimidin-3-one]
143	104	C=CCn1c(=O)c2cnc(Nc3ccc(N4CCN(C)CC4)cc3)nc2n1-c1cccc(C(=O)N(C)C)c1 [Example 1, 3-(2-allyl-6-{[4-(4-methylpiperazin-1-yl)phenyl]amino}-3-oxo-1,2-dihydro-3H-pyrazolo[3,4-d]pyrimidin-1-yl)-N,N-dimethylbenzamide]
